This note sets out measurements from US7179825B2, “Retinoic acid mimetic anilides” (Janssen Pharmaceutica N.V., priority 1997, dated 2007).

For experiment [1], the system named is metabolism of retinoic acid in human breast cancer cells. The experiment can be described thus: Inhibition of retinoic acid (RA) metabolism (Example C.1). The class given is cell-based. The following applies: MCF-7 human breast cancer cells, 3H-RA as substrate, concentration needed to reduce the amount of metabolites to 50% of the control. The gist of the method: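 Test compound (in 1% DMSO) added at several concentrations to MCF-7 cell suspensions fed ³H-RA, after RA induction of metabolism one day earlier. Scintillation counting of the separated polar metabolite fraction; IC50 = concentration giving 50% of control metabolite level.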

A further experiment deals with Ovariectomized rats. The experiment can be described thus: Vaginal keratinization test on ovariectomized rats (Example C.2). The class given is in vivo. The conditions noted are these: estradiol undecylate induced keratinization, per os once daily on days 1-3, active dose = 50% of rats show complete suppression; for minimal effective dose: Rattus norvegicus, po, read-out: LAD (lowest active dose). The gist of the method:
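Value is the lowest oral dose (mg/kg) at which half of tested rats show complete suppression of estradiol undecylate-induced vaginal keratinization by histology. Ovariectomized rats received 100 μg/100 g estradiol undecylate s.c., then compound or PEG 200 vehicle p.o. daily for three days; sacrifice one day later.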

One may read the IC50 as the concentration that gives 50% inhibition.

SMILES strings stand for the structures.

In the case of `CCC(CC)C(c1ccc(NC(=O)Cc2ccc(O)c(Cl)c2)cc1)n1ccnc1` (racemic) [Compound 117], in experiment [1], the IC50 turned out to be 0.255 nM. In the experiment with Ovariectomized rats, the “LAD (lowest active dose)” value is recorded as over 2.50 mg/kg.

As for `CCOc1ccc(CC(=O)Nc2ccc(C(C(CC)CC)n3ccnc3)cc2)cc1Cl` (racemic) [Compound 118], in experiment [1], the IC50 was 2.24 nM. For the same molecule, the “LAD (lowest active dose)” value in the experiment on Ovariectomized rats came to 2.50 mg/kg.

In the case of `CCC(CC)C(c1ccc(NC(=O)Cc2ccc(OCc3ccccn3)cc2)cc1)n1ccnc1` (racemic) [Compound 121], the IC50 in experiment [1] came out at 0.914 nM. Moreover, the “LAD (lowest active dose)” value in the experiment on Ovariectomized rats is reported as over 2.50 mg/kg.

Take `CCC(CC)C(c1ccc(NC(=O)Cc2cc(C)ccc2OC)cc1)n1ccnc1` (racemic) [Compound 122]: the IC50 in experiment [1] was found to be 2.4 nM. Also, the “LAD (lowest active dose)” value with Ovariectomized rats was over 2.50 mg/kg.

`CCC(CC)C(c1ccc(NC(=O)Cc2ccc(OC)c(C)c2)cc1)n1ccnc1` (racemic) [Compound 123]: the IC50 in experiment [1] was found to be 0.0247 nM. In addition, the “LAD (lowest active dose)” value with Ovariectomized rats came out at 2.50 mg/kg.

As to `CCOc1ccc(CC(=O)Nc2ccc(C(C(CC)CC)n3ccnc3)cc2)cc1C` (racemic) [Compound 125], in experiment [1], the IC50 came out at 0.194 nM. The “LAD (lowest active dose)” value in the experiment with Ovariectomized rats was found to be 2.50 mg/kg.

Consider `CCC(CC)C(c1ccc(NC(=O)Cc2ccc(OC)cc2OC)cc1)n1ccnc1` (racemic) [Compound 126], for which, in experiment [1], the IC50 was under 0.01 nM. Besides, the “LAD (lowest active dose)” value with Ovariectomized rats turned out to be 2.50 mg/kg.

Turning to `C/C(=C\c1ccccc1)C(=O)Nc1ccc(C(C(C)C)n2cncn2)cc1` (racemic) [Compound 154, (±)-(E)-2-methyl-N-[4-[2-methyl-1-(1H-1,2,4-triazol-1-yl)propyl]phenyl]-3-phenyl-2-propenamide], the IC50 in experiment [1] (MCF7) was determined as 4.14 nM. The minimal effective dose in the experiment with Ovariectomized rats was determined as 5 mg/kg.

For the molecule `CC(C)C(c1ccc(NC(=O)/C=C/c2ccccc2)cc1)n1cncn1` (racemic) [Compound 155], the IC50 in experiment [1] came to 50.1 nM. In the experiment with Ovariectomized rats, the “LAD (lowest active dose)” value is over 10.00 mg/kg.

On to `CC(=Cc1cccc(Cl)c1)C(=O)Nc1ccc(C(C(C)C)n2cncn2)cc1` (racemic) [Compound 156], for which, in experiment [1], the IC50 was 31 nM. Besides, the “LAD (lowest active dose)” value in the experiment on Ovariectomized rats was over 10.00 mg/kg.

Take `C/C(=C\c1ccc(F)cc1)C(=O)Nc1ccc(C(C(C)C)n2cncn2)cc1` (racemic) [Compound 157]: the IC50 in experiment [1] was determined as 84.8 nM. Also, the “LAD (lowest active dose)” value with Ovariectomized rats is reported as over 10.00 mg/kg.

`CC(C)C(c1ccc(NC(=O)C(F)=Cc2ccccc2)cc1)n1cncn1` (racemic) [Compound 160]: the IC50 in experiment [1] turned out to be 86.5 nM. The “LAD (lowest active dose)” value in the experiment on Ovariectomized rats was determined as 10.00 mg/kg.

Turning to `CCC(=O)Nc1ccc(C(C(C)C)n2ccnc2)cc1` (racemic) [Compound 163], in experiment [1], the IC50 was 2.36 nM. Further, the “LAD (lowest active dose)” value in the experiment with Ovariectomized rats stood at 20.00 mg/kg.

As for `CC(Cc1ccccc1)C(=O)Nc1ccc(C(C(C)C)n2ccnc2)cc1` (racemic) [Compound 164, (±)-N-[4-[1-(1H-imidazol-1-yl)-2-methylpropyl]phenyl]-α-methylbenzenepropanamide], in experiment [1] (MCF7), the IC50 was determined as 8.15 nM. Further, in the experiment with Ovariectomized rats, the minimal effective dose came out at 20 mg/kg.

In the case of `CC(C)C(c1ccc(NC(=O)c2ccccc2)cc1)n1ccnc1` (racemic) [Compound 166], the IC50 in experiment [1] was determined as 1.75 nM. Further, the “LAD (lowest active dose)” value with Ovariectomized rats is listed as 5.00 mg/kg.

Take `CC(C)C(c1ccc(NC(=O)c2cc3ccccc3o2)cc1)n1ccnc1` (racemic) [Compound 167]: in experiment [1], the IC50 was 4.16 nM. In the experiment with Ovariectomized rats, the “LAD (lowest active dose)” value was 10.00 mg/kg.

As for `CC(C)C(c1ccc(NC(=O)c2cc3ccccc3s2)cc1)n1ccnc1` (racemic) [Compound 168], the IC50 in experiment [1] worked out at 2.36 nM. Moreover, the “LAD (lowest active dose)” value in the experiment on Ovariectomized rats worked out at 10.00 mg/kg.

As for `CC(C)C(c1ccc(NC(=O)c2ccco2)cc1)n1ccnc1` (racemic) [Compound 169], in experiment [1], the IC50 amounted to 0.531 nM. The “LAD (lowest active dose)” value in the experiment on Ovariectomized rats was found to be 10.00 mg/kg.

Turning to `CC(C)C(c1ccc(NC(=O)c2cnccn2)cc1)n1ccnc1` (racemic) [Compound 170], in experiment [1], the IC50 came out at 12.2 nM. The “LAD (lowest active dose)” value in the experiment on Ovariectomized rats stood at 10.00 mg/kg.

Consider `CC(C)C(c1ccc(NC(=O)c2ccoc2)cc1)n1ccnc1` (racemic) [Compound 172], for which the IC50 in experiment [1] was found to be 3.41 nM. Further, the “LAD (lowest active dose)” value in the experiment with Ovariectomized rats was 10.00 mg/kg.

As for `CC(C)C(c1ccc(NC(=O)c2ccsc2)cc1)n1ccnc1` (racemic) [Compound 173], the IC50 in experiment [1] was 5.17 nM. In addition, the “LAD (lowest active dose)” value in the experiment with Ovariectomized rats came to 10.00 mg/kg.

Turning to `CC(C)C(c1ccc(NC(=O)C2CCCCC2)cc1)n1ccnc1` (racemic) [Compound 174], the IC50 in experiment [1] was 1.6 nM. Further, the “LAD (lowest active dose)” value in the experiment on Ovariectomized rats was found to be 10.00 mg/kg.

In the case of `C/C(C(=O)Nc1ccc(C(C(C)C)n2ccnc2)cc1)=C(/C)c1ccccc1` (racemic) [Compound 176], the IC50 in experiment [1] stood at 18.7 nM. Besides, the “LAD (lowest active dose)” value in the experiment on Ovariectomized rats is given as over 10.00 mg/kg.

For `CC(C)C(c1ccc(NC(=O)c2ccc3ccccc3c2)cc1)n1ccnc1` (racemic) [Compound 179], the IC50 in experiment [1] worked out at 36.9 nM. Further, the “LAD (lowest active dose)” value with Ovariectomized rats is reported as over 10.00 mg/kg.

For `CC(C)C(c1ccc(NC(=O)C2CCCO2)cc1)n1ccnc1` (racemic) [Compound 181], the IC50 in experiment [1] is 14.1 nM. Besides, the “LAD (lowest active dose)” value in the experiment with Ovariectomized rats is 10.00 mg/kg.

As to `CC(C)C(c1ccc(NC(=O)c2ccc3nnn(C)c3c2)cc1)n1ccnc1` (racemic) [Compound 184], in experiment [1], the IC50 was 5.15 nM. The “LAD (lowest active dose)” value in the experiment on Ovariectomized rats is over 10.00 mg/kg.

Regarding `CC(C)C(c1ccc(NC(=O)C2CCOC2)cc1)n1ccnc1` (racemic) [Compound 185], in experiment [1], the IC50 worked out at 39.7 nM. In the experiment on Ovariectomized rats, the “LAD (lowest active dose)” value was found to be 10.00 mg/kg.

On to `CC(C)C(c1ccc(NC(=O)c2csc(-c3ccccc3)n2)cc1)n1ccnc1` (racemic) [Compound 186], for which, in experiment [1], the IC50 was over 100 nM. The “LAD (lowest active dose)” value in the experiment on Ovariectomized rats is recorded as over 10.00 mg/kg.

For the molecule `CC(C)C(c1ccc(NC(=O)C(C)(c2ccccc2)c2ccccc2)cc1)n1ccnc1` (racemic) [Compound 189], the IC50 in experiment [1] was over 100 nM. Moreover, the “LAD (lowest active dose)” value in the experiment on Ovariectomized rats is given as over 10.00 mg/kg.

`CC(C)C(c1ccc(NC(=O)C2CCCC2)cc1)n1ccnc1` (racemic) [Compound 192]: the half-inhibitory concentration (IC50) in experiment [1] worked out at 3.34 nM. Moreover, the “LAD (lowest active dose)” value with Ovariectomized rats was over 10.00 mg/kg.

`CC(C)C(c1ccc(NC(=O)C2CCCCC2)cc1)n1ccnc1` (racemic) [Compound 193]: the IC50 in experiment [1] was 12.1 nM. For the same molecule, in the experiment with Ovariectomized rats, the “LAD (lowest active dose)” value is given as over 10.00 mg/kg.

`CC(C)C(c1ccc(NC(=O)c2ccncc2)cc1)n1ccnc1` (racemic) [Compound 194]: the 50% inhibitory concentration (IC50) in experiment [1] was 7.07 nM. Further, in the experiment with Ovariectomized rats, the “LAD (lowest active dose)” value is 10.00 mg/kg.

For the molecule `CC(C)C(c1ccc(NC(=O)c2cccnc2)cc1)n1ccnc1` (racemic) [Compound 196], the IC50 in experiment [1] came to 22.3 nM. For the same molecule, the “LAD (lowest active dose)” value in the experiment on Ovariectomized rats is given as over 10.00 mg/kg.

For `CC(C)C(c1ccc(NC(=O)C2(C)CCCCC2)cc1)n1ccnc1` (racemic) [Compound 201], the IC50 in experiment [1] stood at 3.58 nM. Further, the “LAD (lowest active dose)” value in the experiment on Ovariectomized rats is listed as over 10.00 mg/kg.

As to `CC(C)C(c1ccc(NC(=O)C2CCCCC2C)cc1)n1ccnc1` (racemic) [Compound 202], the IC50 in experiment [1] came out at 1.84 nM. For the same molecule, the “LAD (lowest active dose)” value in the experiment with Ovariectomized rats is listed as over 10.00 mg/kg.

In the case of `CC(C)C(c1ccc(NC(=O)c2ccc3c(c2)CCC(=O)N3)cc1)n1ccnc1` (racemic) [Compound 205], the IC50 in experiment [1] amounted to 11.7 nM. The “LAD (lowest active dose)” value in the experiment with Ovariectomized rats is recorded as over 10.00 mg/kg.

On to `C/C(C(=O)Nc1ccc(C(C(C)C)n2ccnc2)cc1)=C(/c1ccccc1)c1ccco1` (racemic) [Compound 207], for which the IC50 in experiment [1] worked out at 25.4 nM. For the same molecule, in the experiment on Ovariectomized rats, the “LAD (lowest active dose)” value is on record as 10.00 mg/kg.

As for `CC(C)C(c1ccc(NC(=O)c2ccccn2)cc1)n1ccnc1` (racemic) [Compound 208], the IC50 in experiment [1] was 6.43 nM. For the same molecule, in the experiment on Ovariectomized rats, the “LAD (lowest active dose)” value is given as over 10.00 mg/kg.

As to `CC(C)C(=O)Nc1ccc(C(C(C)C)n2ccnc2)cc1` (racemic) [Compound 209], in experiment [1], the IC50 was 8.27 nM. The “LAD (lowest active dose)” value in the experiment with Ovariectomized rats is 5.00 mg/kg.

As to `CC(C)C(c1ccc(NC(=O)CSCc2ccccc2)cc1)n1ccnc1` (racemic) [Compound 210], the IC50 in experiment [1] was determined as 29 nM. Besides, the “LAD (lowest active dose)” value with Ovariectomized rats is on record as 20.00 mg/kg.

Take `CC(C)C(c1ccc(NC(=O)CNc2ccccc2)cc1)n1ccnc1` (racemic) [Compound 213]: the IC50 in experiment [1] stood at 2.07 nM. The “LAD (lowest active dose)” value with Ovariectomized rats was determined as 20.00 mg/kg.

In the case of `CC(C)C(c1ccc(NC(=O)c2ccc3ccccc3n2)cc1)n1ccnc1` (racemic) [Compound 215], the IC50 in experiment [1] was determined as 36 nM. The “LAD (lowest active dose)” value in the experiment with Ovariectomized rats was 20.00 mg/kg.

For `CC(C)C(c1ccc(NC(=O)c2cnc3ccccc3n2)cc1)n1ccnc1` (racemic) [Compound 216], in experiment [1], the IC50 came to 11.7 nM. In the experiment on Ovariectomized rats, the “LAD (lowest active dose)” value stood at 20.00 mg/kg.

With `CCOC(=O)CCCC(=O)Nc1ccc(C(C(C)C)n2ccnc2)cc1` (racemic) [Compound 219, (±)-ethyl 5-[[4-[1-(1H-imidazol-1-yl)-2-methylpropyl]phenyl]amino]-5-oxopentanoate], in experiment [1] (MCF7), the IC50 was found to be 3.2 nM. In the experiment on Ovariectomized rats, the minimal effective dose stood at 20 mg/kg.

Turning to `CC(C)C(c1ccc(NC(=O)c2ccc(Br)o2)cc1)n1ccnc1` (racemic) [Compound 220], in experiment [1], the half-maximal inhibitory concentration (IC50) was found to be 1.48 nM. In addition, in the experiment with Ovariectomized rats, the “LAD (lowest active dose)” value was 20.00 mg/kg.

Consider `CC(C)C(c1ccc(NC(=O)C(C)(C)Oc2ccc(Cl)cc2)cc1)n1ccnc1` (racemic) [Compound 222], for which, in experiment [1], the IC50 was 3.32 nM. Further, in the experiment on Ovariectomized rats, the “LAD (lowest active dose)” value stood at 20.00 mg/kg.
